Experimental data as given in PubChem BioAssay (NCI).
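Test compounds were applied to cells in 96-well plates for 48 hours at 5 doses. GI50 = concentration required for 50% inhibition of growth. TGI marks complete inhibition of growth.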

How the values were obtained:
Experiment in all cases: inhibition of tumour cell growth, NCI panel, 48 h
[1] = test system: UACC-62 melanoma
[2] = test system: SF-539 CNS
[3] = test system: HCT-15 colon
[4] = test system: SK-OV-3 ovarian
[5] = test system: CAKI-1 renal
[6] = test system: LOX IMVI melanoma
[7] = test system: MCF7 breast
[8] = test system: KM12 colon
[9] = test system: HOP-62 NSCLC
[10] = test system: 786-0 renal
[11] = test system: RXF 393 renal
[12] = test system: OVCAR-8 ovarian
[13] = test system: OVCAR-5 ovarian
[14] = test system: UO-31 renal
[15] = test system: COLO 205 colon
[16] = test system: MALME-3M melanoma
[17] = test system: PC-3 prostate
[18] = test system: SNB-75 CNS
[19] = test system: NCI/ADR-RES ovarian
[20] = test system: HCT-116 colon
[21] = test system: K-562 leukemia
[22] = test system: CCRF-CEM leukemia
[23] = test system: HL-60(TB) leukemia
[24] = test system: NCI-H522 lung
[25] = test system: A498 renal
[26] = test system: NCI-H23 lung
[27] = test system: NCI-H460 lung
[28] = test system: HCC-2998 colon
[29] = test system: A549 NSCLC
[30] = test system: HT29 colon
[31] = test system: MDA-MB-231 breast
[32] = test system: MOLT-4 leukemia
[33] = test system: RPMI-8226 leukemia
[34] = test system: OVCAR-4 ovarian
[35] = test system: IGROV1 ovarian
[36] = test system: NCI-H226 lung
[37] = test system: SF-268 CNS
[38] = test system: SK-MEL-2 melanoma
[39] = test system: SF-295 CNS
[40] = test system: SW-620 colon
[41] = test system: MDA-MB-435
[42] = test system: U251 CNS
[43] = test system: SNB-19 CNS
[44] = test system: SK-MEL-5 melanoma
[45] = test system: T-47D breast
[46] = test system: SK-MEL-28 melanoma
[47] = test system: HOP-92 NSCLC
[48] = test system: TK-10 renal
[49] = test system: UACC-257 melanoma
[50] = test system: ACHN renal
[51] = test system: HS 578T breast
[52] = test system: SN12C renal
[53] = test system: M14 melanoma
[54] = test system: SR leukemia
[55] = test system: BT-549 breast
[56] = test system: EKVX NSCLC
[57] = test system: DU-145 prostate

O=C1CCC(N2C(=O)c3ccc(NS(=O)(=O)c4ccccc4OC(F)(F)F)cc3C2=O)C(=O)N1 (stereo unspecified)
GI50 [1]: 16100 nM
TGI [1]: > 100000 nM
GI50 [2]: > 50700 nM
TGI [2]: > 100000 nM
GI50 [3]: 100 nM
TGI [3]: > 68000 nM
GI50 [4]: 2600 nM
TGI [4]: > 100000 nM
GI50 [5]: 456 nM
TGI [5]: > 100000 nM
GI50 [6]: > 100000 nM
TGI [6]: > 100000 nM
GI50 [7]: 1680 nM
TGI [7]: > 100000 nM
GI50 [8]: 1970 nM
TGI [8]: > 100000 nM
GI50 [9]: 187 nM
TGI [9]: 2460 nM
GI50 [10]: 668 nM
TGI [10]: > 100000 nM
GI50 [11]: 609 nM
TGI [11]: 7950 nM
GI50 [12]: 159 nM
TGI [12]: > 100000 nM
GI50 [13]: 12600 nM
TGI [13]: > 100000 nM
GI50 [14]: 306 nM
TGI [14]: > 29100 nM
GI50 [15]: 857 nM
TGI [15]: > 27200 nM
GI50 [16]: 147 nM
TGI [16]: 3490 nM
GI50 [17]: 455 nM
TGI [17]: > 27800 nM
GI50 [18]: 110 nM
TGI [18]: 2680 nM
GI50 [19]: 700 nM
TGI [19]: > 100000 nM
GI50 [20]: > 100000 nM
TGI [20]: > 100000 nM
GI50 [21]: 3010 nM
TGI [21]: > 100000 nM
GI50 [22]: 31.2 nM
GI50 [23]: 27.9 nM
TGI [23]: 350 nM
TGI [24]: > 100000 nM
GI50 [25]: 266 nM
TGI [25]: 1750 nM
GI50 [26]: > 100000 nM
TGI [26]: > 100000 nM
GI50 [27]: > 100000 nM
TGI [27]: > 100000 nM
GI50 [28]: 729 nM
TGI [28]: > 70800 nM
GI50 [29]: 7000 nM
TGI [29]: > 100000 nM
GI50 [30]: 7700 nM
TGI [30]: > 100000 nM
GI50 [31]: 82 nM
TGI [31]: 2260 nM
GI50 [32]: 31.4 nM
TGI [32]: 341 nM
GI50 [33]: 7630 nM
TGI [33]: > 100000 nM
GI50 [34]: 2610 nM
TGI [34]: > 100000 nM
GI50 [35]: 465 nM
TGI [35]: > 100000 nM
GI50 [36]: 1120 nM
TGI [36]: > 100000 nM
GI50 [37]: 911 nM
TGI [37]: > 100000 nM
GI50 [38]: 1670 nM
TGI [38]: 38400 nM
GI50 [39]: 4380 nM
TGI [39]: > 100000 nM
GI50 [40]: 312 nM
TGI [40]: > 100000 nM
GI50 [41]: 6340 nM
TGI [41]: > 100000 nM
GI50 [42]: > 100000 nM
TGI [42]: > 100000 nM
GI50 [43]: 843 nM
TGI [43]: > 100000 nM
GI50 [44]: 2560 nM
TGI [44]: > 27000 nM
GI50 [45]: 165 nM
GI50 [46]: 7370 nM
TGI [46]: > 100000 nM
GI50 [47]: 22 nM
TGI [47]: 161 nM
GI50 [48]: 2720 nM
TGI [48]: > 100000 nM
GI50 [49]: > 100000 nM
TGI [49]: > 100000 nM
GI50 [50]: 8700 nM
TGI [50]: > 100000 nM
GI50 [51]: 58.2 nM
TGI [51]: 1430 nM
GI50 [52]: 1140 nM
TGI [52]: > 100000 nM
GI50 [53]: 1590 nM
TGI [53]: > 100000 nM
GI50 [54]: 10800 nM
TGI [54]: > 100000 nM
GI50 [55]: 120 nM
TGI [55]: 1610 nM
GI50 [56]: > 100000 nM
TGI [56]: > 100000 nM
GI50 [57]: > 100000 nM
TGI [57]: > 100000 nM
